Here are results for 4 compounds from patent publication US9539191B2, “Composition for cosmetic use suitable to produce a pigmentation effect on hair” (Giuliani S.P.A., priority 2013, dated 2017).

One experiment concerns Tyrosinase. The experiment is described as follows: Enzymatic assay of tyrosinase (L-tyrosine substrate, absorbance 280 nm). The experiment is classed as biochemical. To be noted: compound 5 mM; for Increment in enzymatic activity (%): % enzymatic activity - 100; for Enzymatic activity (%): compared to activity of the enzyme without active compounds (100%). As for the experimental part: The following compounds with formulae (II), (III), (IV) and (V) were tested as defined above, all in a concentration of 5 mM:
Tyrosinase is a membrane glycoprotein that is expressed in melanosomes, specialised organelles in the endocytic pathway through which the synthesis and assembly of melanin takes place. The synthesis of melanin from tyrosine takes place in pigment-producing cells, namely melanocytes. Melanin produced in melanosomes is transferred to keratinocytes through said processes. Melanin is a polymer that absorbs light within a broad spectrum of wavelengths, and protects keratinocytes from the harmful effects of UV radiations. A peroxidase is involved in the first phase of the reaction, which converts the amino acid into […] alanine or DOPA. The enzyme tyrosinase is involved in the subsequent phase of the biosynthesis pathway that produces dopaquinone. Melanin is synthesised starting from precursors of tyrosine and DOPA, through the enzyme tyrosinase, which presents both […] and oxidase functions. Tyrosine is converted into L-DOPA (dihydroxyphenylalanine) and, then, into dopaquinone, which is red, until the brown melanin polymer is obtained. In a first branch of the pathway dopaquinone is converted into black polymeric melanins, while the reaction with cysteine forms a series of polymers that are similar among them and are called red polymeric melanins.
REAGENT A (potassium phosphate buffer, 50 mM, pH 6.5, 25° C.):
REGENT B (L-tyrosine solution 1 mM):
REAGENT C (tyrosinase solution):
Prepare a solution A+B as described below:
10 mL of Reagent A (potassium phosphate buffer 50 mM)
10 mL of Reagent B (L-tyrosine 1 mM)
Vortex the solution and, if necessary, restore pH 6.5, at 25° C. with HCl 1M or NaOH.
Prepare the solutions with the various concentrations of the compounds to be tested, and preserve at 4° C. until use.
Defrost the tyrosinase solution and keep it on ice in the dark until use.
Mix, at ambient temperature, the solution of potassium phosphate buffer (50 mM, pH 6.5), the above solution A+B and the solutions that include the compounds of the formula (I) to be tested.
Use the following parameters:
Measuring mode: absorbance;
Execution settings: 700 seconds.
First read the enzymatic activity of tyrosinase when there is only L-tyrosine to verify the actual enzyme/mL units and have a basic reference to later assess the effects of the compound examined on enzyme activity:
1 replicates for the blank test (one blank test for each concentration to be tested);
2 replicates for the test (one test for each concentration to be tested).
Prepare the mixtures in separate cuvettes, as described below:
Test the examined compounds with formulae (II), (III), (IV) and (V), as specified below: […]
Calculating the Inhibition or Induction of Enzymatic Activity
[formula] df=dilution factor (30 because 0.1 mL/3 mL tot) 0.001=change of A280 nm/min per unit of L-tyrosine at pH 6.5, 25° C. in a 3 mL reaction mixture; 0.1=volume (mL) of enzyme used Unit/mg solid=unit/mL of enzyme: mg solid/mL of enzyme Unit/mg protein=unit/mL of enzyme: mg protein/mL of enzyme Definition of unit=increment of A280 nm/min equal to 0.001, at 25° C., pH 6.5 in a 3 mL reaction volume containing L-tyrosine.
The percentage of enzymatic activity was calculated for each tested compound, compared to the activity of the enzyme (100% enzymatic activity) failing the presence of active compounds.
The increment percentage of enzymatic activity was later calculated (% enzymatic activity−100).

For experiment [1], the system named is Hair follicles (HF) in anagen phase VI with normal pigmentation. As to the kind of experiment: Hair pigmentation in organ-cultured human hair follicles (quantitative Masson-Fontana melanin stain). The format is cell-based. As for the experimental part: The skin of the normal human scalp was taken from a person who was submitted to routine facial lifting surgery, after obtaining their informed consent. All experiments were performed in compliance with the Helsinki principles, with the Ethics Committee approval.
N^1-methyl-spermidine in the invention or the carrier as such (control group) were administered once every time the culture medium was changed, namely every 48 hours. The control compound administered was spermidine at a concentration of 0.5 μM.
The Masson-Fontana stain was administered to ensure histochemical visibility of melanin in frozen sections. Melanin was stained as brown granules and the degree of pigmentation was assessed with the quantitative Masson-Fontana technique. (Ito N., Ito T., Kromminga A., Bettermann A., Takigawa M., Kees F., Straub R. H., and Paus R. (2005): Human hair follicles display a functional equivalent of the hypothalamic-pituitary-adrenal axis and synthesise cortisol. (FASEB J 19, 1332-4)
This method is a highly sensitive and reliable indicator of variations in melanin synthesis, as proven by assays of enzymatic activity, and the expression of standard tyrosinase. […]
The intensity of the stain was analysed in a defined reference region of the hair follicle's pigmentation unit using the software ImageJ (National Institute of Health).

As to `CCCNCCCCNCCCN` [Propyl-spermidine, N-(3-aminopropyl)-N^1-propyl-1,4-butandiammine], in the experiment on Tyrosinase, the “Increment in enzymatic activity (%)” value is 31.29% and the “Enzymatic activity (%)” value is 131.29%.

In the case of `CNCCCCNCCCN` [Methyl-spermidine, N-(3-aminopropyl)-N^1-methyl-1,4-butandiammine], the “absolute pigmentation intensity in hair follicles compared to spermidine (Spd)” value in experiment [1] (0.5 μM vs spermidine 0.5 μM, FIG. 1) is “higher increase in absolute pigmentation intensity”. The “melanin produced / (absolute) intensity of pigmentation in hair follicles compared to carrier” value in experiment [1] (0.5 and 1.5 μM, administered every 48 hours, Masson-Fontana stain, FIGS. 1 and 2) was “increase in melanin produced”. Besides, in the experiment with Tyrosinase, the “Increment in enzymatic activity (%)” value turned out to be 5.16% and the “Enzymatic activity (%)” value is recorded as 105.16%.

On to `NCCCNCCCCNC1CCCCC1` [Cyclohexyl-spermidine, N-(3-aminopropyl)-N^1-cyclohexyl-1,4-butandiammine], for which, in the experiment with Tyrosinase, the “Increment in enzymatic activity (%)” value is 35.31% and the “Enzymatic activity (%)” value is listed as 135.31%.

As to `CCNCCCCNCCCN` [Ethyl-spermidine, N-(3-aminopropyl)-N^1-ethyl-1,4-butandiammine], in the experiment on Tyrosinase, the “Increment in enzymatic activity (%)” value was determined as 21.50% and the “Enzymatic activity (%)” value came out at 121.50%.
